The text below walks through data of patent US20200360331A1, “COMPOSITIONS COMPRISING 15-HEPE AND/OR 15-HETrE AND METHODS OF TREATING OR PREVENTING CARDIOMETABOLIC DISEASE, METABOLIC SYNDROME, AND/OR RELATED DISEASES” (Afimmune Limited, priority 2019, published 2020).

The test system of assay [1] is TβR-I (type I TGF-β receptor). Description: Sucrose density gradient analysis in Mv1Lu cells, TβR-I. Format: cell-based, mink. The protocol: Sucrose gradient ultracentrifugation and confocal microscopy were used to identify 15-HEPE induced microdomain translocation of TGF-β receptors by sucrose. Sucrose density gradient analysis of TGF-β receptors was conducted in the plasma membranes of Mv1Lu cells (mink lung epithelial cell) treated with 100 μM of 15-HEPE and an equal volume of DMSO (dimethyl sulfoxide) at 37° C. for 0, 1, 4, and 24 hours, and the cell lysates from these treated cells were subjected to sucrose density gradient ultracentrifugation. The sucrose gradient fractions were then analyzed by Western blot analysis using anti-TβR-I (type I TGF-β receptor), anti-TβR-II (type II TGF-β receptor), anti-TβR-III (type III TGF-β receptor, betaglycan), anti-EGFR (epidermal growth factor receptor), and anti-caveolin-1 antibodies. The lipid raft/caveolae, and non-lipid raft microdomain localization of TβR-I, TβR-II, TβR-III, EGFR and caveolin-1 in the plasma membrane of untreated cells or cells treated with 15-HEPE were assessed to determine the effects of 15-HEPE on the membrane microdomain localization of the TGF-β receptors. […]

The subject of a further assay is UUO mice. Description: UUO study: Sirius red staining of kidney sections, fibrosis area. The format is in vivo, C57BL/6 mice. To be noted: for fibrosis area compared with the Vehicle group: Mann-Whitney U test (p<0.1); for Sirius red-positive area / Sirius red-positive area (%) _Median: kidney. The protocol:
UUO Surgery: On day 0 of the study, UUO surgery was performed on mice under pentobarbital sodium anesthesia. The mouse's hair was first shaved and then abdomen cut open to exteriorize the mouse's left ureter. The ureter was ligated 4-0 nylon sutures at two points. The mouse's peritoneum and skin were then closed with sutures, and the mouse transferred to a clean cage until recovered from the anesthesia. Sham operated mice had their left ureter exposed but not ligated.
Histopathological analysis: To visualize collagen deposition, kidney sections were stained using picro-Sirius red solution (Waldeck, Germany). For quantification of interstitial fibrosis area, bright field images in the corticomedullary region were captured using a digital camera (e.g., DFC295; Leica Microsystems, Germany) at 200-fold magnification, and the positive areas in 5 fields/section were measured using ImageJ software (National Institute of Health, USA).

Assay [2] concerns TGF-β induced epithelial mesenchymal transition (EMT) protein production. Briefly: TGF-β induced EMT protein production in HepG2 cells. Conditions: increasing doses for 1 hour, then 200 pM TGF-β for 48 hours, listed as 15-HEPE. Format: cell-based, human. The protocol: The effects of 15-HEPE on TGF-β-induced signaling and cellular responses were determined. To test the effect of 15-HEPE on TGF-β-induced signaling, the activities of 15-HEPE to regulate TGF-β-stimulated Smad2 phosphorylation and nuclear translocation, both of which are key signaling events leading to TGF-β-induced cellular responses, were tested. One important biological activity of TGF-β is transcriptional activation of genes responsible for epithelial-mesenchymal transition (EMT), which is a crucial event in wound healing, tissue fibrosis, and cancer progression. The effect of 15-HEPE on TGFβ-induced epithelial mesenchymal transition related proteins (such as fibronectin, PAI-1, and N-cadherin etc.) expression in HepG2 and […] cells were assessed. HepG2 cells (human hepatoma cell line) were treated in increasing doses of 15-HEPE stage II in DMEM containing 0.1% of FBS for 1 hour and continually stimulated with or without 200 picomolar (pM) of TGF-β for 48 hours.
HepG2 cells (human hepatoma cell line) were treated in increasing doses of 15-HEPE stage II in DMEM containing 0.1% of FBS for 1 hour and continually stimulated with or without 200 picomolar (pM) of TGF-β for 48 hours. The two panels shown in FIG. 18A are two separate experiments run under the same experimental conditions.

Another assay deals with NAFLD patients. Briefly: Phase IIa NAFLD study: lipidomics. The format is in vivo, human. Conditions: 2 g. From the text:
Exploratory analysis: The exploratory analysis included analysis of lipid and metabolic parameters including total cholesterol, triglycerides, very low-density lipoprotein cholesterol (VLDL-C), low density lipoprotein cholesterol (LDL-C), high density lipoprotein cholesterol (HDL-C), non-high-density lipoprotein cholesterol (non-HDL-C), remnant-like particle cholesterol (RLP-C), fasting glucose, insulin, free fatty acids and hemoglobin A1C (HbA1C). Additional exploratory analysis included high throughput lipidomics and proteomics. […] The study was planned to include 96 evaluable patients with 32 patients randomized per treatment group. […] Exploratory analysis: The exploratory analysis included analysis of lipid and metabolic parameters including total cholesterol, triglycerides, very low-density lipoprotein cholesterol (VLDL-C), low density lipoprotein cholesterol (LDL-C), high density lipoprotein cholesterol (HDL-C), non-high-density lipoprotein cholesterol (non-HDL-C), remnant-like particle cholesterol (RLP-C), fasting glucose, insulin, free fatty acids and hemoglobin A1C (HbA1C). Additional exploratory analysis included high throughput lipidomics and proteomics.

Entries after “also recorded” stand apart in the source; their conditions may differ.

For the compound `CC/C=C\CC(O)/C=C/C=C\C/C=C\C/C=C\CCCC(=O)O` (centres unmarked) [DS102, 15-hydroxy-eicosa-5Z,8Z,11Z,13E,17Z-pentaenoic acid], the “abundance of TβR-I proteins” value in assay [1] (100 μM, 0, 1, 4 and 24 hours) was “did not affect the abundance of TβR-I proteins”. Besides, the “translocation of TβR-I to lipid-raft” value in assay [1] (100 μM, 24 hours) was “induced translocation of TβR-I to lipid-raft”. Besides, the “fibrosis area compared with the Vehicle group” value in the assay on UUO mice (50 mg/kg) and with UUO mice (500 mg/kg) was “tended to decrease; also recorded: reduction trend” in each case. Also, the Sirius red-positive area is recorded as 5.01 ± 3.11% in the assay with UUO mice (50 mg/kg PO QD Day 0-13, Day 14) and 4.01 ± 1.92% in the assay with UUO mice (500 mg/kg PO QD Day 0-13, Day 14). In addition, the “Sirius red-positive area (%) _Median” value with UUO mice (50 mg/kg PO QD Day 0-13, Day 14, median) stood at 4.19 ± 3.33%; in the assay with UUO mice (500 mg/kg PO QD Day 0-13, Day 14, median) it was 3.08 ± 1.16%. Besides, the “TGF-β induced EMT (pro-fibrotic) protein production” value in assay [2] is listed as “blocks TGF-β induced EMT protein production; also recorded: blocked TGF-β induced pro-fibrotic protein production”. The “levels of multiple glycerophospholipid groups” value in the assay with NAFLD patients was “significantly increased”. Also, in the assay on NAFLD patients, the “levels of multiple hepatotoxic diglycerides” value is “significantly decreased”.
